According to US20100267561A1, “HERBICIDAL PYRIDAZINONE DERIVATIVES” (priority 2007, published 2010):
Like-named read-outs stand apart in the source and are kept apart here.

Experiments:
Test in all cases: Test B pre-/postemergence plant response
Assay type in all cases: in vivo
[1] = test system: wheat (Triticum aestivum); details: Triticum aestivum, pre-emergence, Preemergence, scale 0 to 100, read-out: Plant response rating, Wheat
Method in brief: (§1)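 Seeds were sown and sprayed preemergence, while plants at 2 to 18 cm (1- to 4-leaf stage) got postemergence sprays. Compounds were formulated in a non-phytotoxic solvent mixture with surfactant. After 13 to 15 days in a greenhouse, injury was rated visually against untreated controls, 0 (no effect) to 100 (complete control).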

[2] = test system: johnsongrass (Sorghum halepense); details: Sorghum halepense, read-out: Plant response rating, Johnsongrass; for pest or weed control at 31 g/ha: 31 g ai/ha, 100 complete control; for pest or weed control at 62 g/ha: 62 g ai/ha; for pest or weed control at 62 g/ha / pest or weed control at 125 g/ha / pest or weed control at 250 g/ha: scale 0 to 100; for pest or weed control at 125 g/ha: 125 g ai/ha; for pest or weed control at 250 g/ha: 250 g ai/ha
Method in brief: as §1

[3] = test system: cocklebur (Xanthium strumarium); details: Xanthium strumarium, read-out: Plant response rating, Cocklebur; for pest or weed control at 31 g/ha: 31 g ai/ha, 100 complete control; for pest or weed control at 62 g/ha: 62 g ai/ha; for pest or weed control at 62 g/ha / pest or weed control at 125 g/ha / pest or weed control at 250 g/ha: scale 0 to 100; for pest or weed control at 125 g/ha: 125 g ai/ha; for pest or weed control at 250 g/ha: 250 g ai/ha
Method in brief: as §1

[4] = test system: common ragweed (Ambrosia elation); details: Ambrosia, read-out: Plant response rating, Ragweed; for pest or weed control at 31 g/ha: 31 g ai/ha, 100 complete control; for pest or weed control at 62 g/ha: 62 g ai/ha; for pest or weed control at 62 g/ha / pest or weed control at 125 g/ha / pest or weed control at 250 g/ha: scale 0 to 100; for pest or weed control at 125 g/ha: 125 g ai/ha; for pest or weed control at 250 g/ha: 250 g ai/ha
Method in brief: as §1

kochia (Kochia scoparia) = test system: kochia (Kochia scoparia)
Method in brief: as §1

[5] = test system: common (oilseed) sunflower (Helianthus annuus); details: Helianthus annuus, pre-emergence, Preemergence, read-out: Plant response rating, Sunflower
Method in brief: as §1

[6] = test system: lambsquarters (Chenopodium album); details: Chenopodium album, read-out: Plant response rating, Lambsquarters; for pest or weed control at 31 g/ha: 31 g ai/ha, 100 complete control; for pest or weed control at 62 g/ha: 62 g ai/ha; for pest or weed control at 62 g/ha / pest or weed control at 125 g/ha / pest or weed control at 250 g/ha: scale 0 to 100; for pest or weed control at 125 g/ha: 125 g ai/ha; for pest or weed control at 250 g/ha: 250 g ai/ha
Method in brief: as §1

[7] = test system: velvetleaf (Abutilon theophrasti); details: Abutilon theophrasti, read-out: Plant response rating, Velvetleaf; for pest or weed control at 31 g/ha: 31 g ai/ha, 100 complete control; for pest or weed control at 62 g/ha: 62 g ai/ha; for pest or weed control at 62 g/ha / pest or weed control at 125 g/ha / pest or weed control at 250 g/ha: scale 0 to 100; for pest or weed control at 125 g/ha: 125 g ai/ha; for pest or weed control at 250 g/ha: 250 g ai/ha
Method in brief: as §1

[8] = post-emergence, Postemergence, scale 0 to 100, 0 no effect
[9] = pre-emergence, Preemergence, 0 to 100 scale, 0 no effect

Cc1cc(-c2ccc(C(F)(F)F)cc2)nn1-c1c(O)cnn(C)c1=O [Compound 1, 5-hydroxy-2-methyl-4-[5-methyl-3-[4-(trifluoromethyl)phenyl]-1H-pyrazol-1-yl]-3(2H)-pyridazinone]
plant injury at 125 g/ha ([1]; 125 g ai/ha): 90%
plant injury at 250 g/ha ([1]; 250 g ai/ha): 95%
pest or weed control at 31 g/ha [2, 8]: 60%
pest or weed control at 62 g/ha ([2]; post-emergence, Postemergence): 90%
pest or weed control at 125 g/ha ([2]; post-emergence, Postemergence): 100%
pest or weed control at 250 g/ha ([2]; post-emergence, Postemergence): 100%
pest or weed control at 31 g/ha [2, 9]: 90%
pest or weed control at 62 g/ha ([2]; pre-emergence, Preemergence): 95%
pest or weed control at 125 g/ha ([2]; pre-emergence, Preemergence): 100%
pest or weed control at 250 g/ha ([2]; pre-emergence, Preemergence): 100%
pest or weed control at 31 g/ha [3, 8]: 0%
pest or weed control at 62 g/ha ([3]; post-emergence, Postemergence): 0%
pest or weed control at 125 g/ha ([3]; post-emergence, Postemergence): 0%
pest or weed control at 250 g/ha ([3]; post-emergence, Postemergence): 0%
pest or weed control at 31 g/ha [3, 9]: 0%
pest or weed control at 62 g/ha ([3]; pre-emergence, Preemergence): 0%
pest or weed control at 125 g/ha ([3]; pre-emergence, Preemergence): 0%
pest or weed control at 250 g/ha ([3]; pre-emergence, Preemergence): 0%
pest or weed control at 31 g/ha [4, 8]: 0%
pest or weed control at 62 g/ha ([4]; post-emergence, Postemergence): 0%
pest or weed control at 125 g/ha ([4]; post-emergence, Postemergence): 50%
pest or weed control at 250 g/ha ([4]; post-emergence, Postemergence): 55%
pest or weed control at 31 g/ha [4, 9]: 0%
pest or weed control at 62 g/ha ([4]; pre-emergence, Preemergence): 0%
pest or weed control at 125 g/ha ([4]; pre-emergence, Preemergence): 0%
pest or weed control at 250 g/ha ([4]; pre-emergence, Preemergence): 0%
Plant response rating, Kochia (kochia (Kochia scoparia); Postemergence, 31 g ai/ha, scale 0 to 100, 0 no effect, 100 complete control): 0
Plant response rating, Kochia (kochia (Kochia scoparia); Postemergence, 62 g ai/ha, scale 0 to 100): 0
Plant response rating, Kochia (kochia (Kochia scoparia); Postemergence, 125 g ai/ha, scale 0 to 100): 0
Plant response rating, Kochia (kochia (Kochia scoparia); Postemergence, 250 g ai/ha, scale 0 to 100): 20
Plant response rating, Kochia (kochia (Kochia scoparia); Preemergence, 62 g ai/ha, scale 0 to 100): 0
Plant response rating, Kochia (kochia (Kochia scoparia); Preemergence, 125 g ai/ha, scale 0 to 100): 20
pest or weed control at 31 g/ha ([5]; 31 g ai/ha, 0 to 100 scale, 0 no effect, 100 complete control): 0%
pest or weed control at 62 g/ha ([5]; 62 g ai/ha, scale 0 to 100): 0%
pest or weed control at 125 g/ha ([5]; 125 g ai/ha, scale 0 to 100): 0%
pest or weed control at 250 g/ha ([5]; 250 g ai/ha, scale 0 to 100): 60%
pest or weed control at 31 g/ha [6, 8]: 0%
pest or weed control at 62 g/ha ([6]; post-emergence, Postemergence): 0%
pest or weed control at 125 g/ha ([6]; post-emergence, Postemergence): 40%
pest or weed control at 250 g/ha ([6]; post-emergence, Postemergence): 50%
pest or weed control at 31 g/ha [6, 9]: 0%
pest or weed control at 62 g/ha ([6]; pre-emergence, Preemergence): 0%
pest or weed control at 125 g/ha ([6]; pre-emergence, Preemergence): 0%
pest or weed control at 250 g/ha ([6]; pre-emergence, Preemergence): 0%
pest or weed control at 31 g/ha [7, 8]: 0%
pest or weed control at 62 g/ha ([7]; post-emergence, Postemergence): 0%
pest or weed control at 125 g/ha ([7]; post-emergence, Postemergence): 0%
pest or weed control at 250 g/ha ([7]; post-emergence, Postemergence): 50%
pest or weed control at 31 g/ha [7, 9]: 0%
pest or weed control at 62 g/ha ([7]; pre-emergence, Preemergence): 0%
pest or weed control at 125 g/ha ([7]; pre-emergence, Preemergence): 0%
pest or weed control at 250 g/ha ([7]; pre-emergence, Preemergence): 50%
